Experimental data as given in patent publication US8748426B2, “Inhibitors of diacylglycerol acyl transferase” (Piramal Enterprises Limited, priority 2009, dated 2014).

target: T1, hDGAT1 (Homo sapiens, UniProt O75907); assay: In-vitro DGAT1 assay (14C oleoyl CoA, hDGAT1 microsomes from Sf9 cells); details: at 1 μM
T1 sequence (O75907 1-488): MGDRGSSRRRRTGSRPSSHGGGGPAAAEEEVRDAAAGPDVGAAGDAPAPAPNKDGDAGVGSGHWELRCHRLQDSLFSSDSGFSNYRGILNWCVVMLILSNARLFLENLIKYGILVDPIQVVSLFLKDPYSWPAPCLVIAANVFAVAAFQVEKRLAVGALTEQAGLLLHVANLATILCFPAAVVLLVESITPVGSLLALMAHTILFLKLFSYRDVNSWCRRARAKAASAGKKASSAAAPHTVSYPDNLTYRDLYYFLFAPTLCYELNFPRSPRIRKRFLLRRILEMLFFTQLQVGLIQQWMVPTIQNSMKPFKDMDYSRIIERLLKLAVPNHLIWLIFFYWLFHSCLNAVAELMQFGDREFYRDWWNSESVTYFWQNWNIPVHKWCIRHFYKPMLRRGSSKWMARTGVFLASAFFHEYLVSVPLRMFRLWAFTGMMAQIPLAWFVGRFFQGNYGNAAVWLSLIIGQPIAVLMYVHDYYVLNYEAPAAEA

| % Inhibition of hDGAT1 | Compound |
| --- | --- |
| ++ (>50% Inhibition) | CC(C)[C@@H](C(=O)O)N1Cc2ccc(-c3ccc(NC(=O)C4C5CC6CC(C5)CC4C6)cc3)cc2C1=O (stereo partly drawn) [Example 190, (S)-2-(6-(4-(Adamantyl-2-carboxamido)phenyl)-1-oxoisoindolin-2-yl)-3-methylbutanoic acid] |

same assay, conditions: read-out: % Inhibition of hDGAT1

| inhibition at 1 µM [%] | Compound |
| --- | --- |
| > 50 | CCCCCCCCCCc1ccc(C(=O)Nc2ccc(-c3ccc4c(c3)C(=O)N([C@H](C(=O)O)C(C)C)C4)cc2)cc1 [Example 188, (S)-2-(6-(4-(4-Decylbenzamido)phenyl)-1-oxoisoindolin-2-yl)-3-methyl butanoic acid] |
| > 50 | CC(C)[C@@H](C(=O)O)N1Cc2ccc(-c3ccc(NC(=O)c4ccc(C(F)(F)F)cc4F)cc3)cc2C1=O [Example 192, (S)-2-(6-(4-(2-Fluoro-4-(trifluoromethyl)benzamido)phenyl)-1-oxoisoindolin-2-yl)-3-methylbutanoic acid] |
| 10 to 50 | CC(C)[C@@H](C(=O)O)N1Cc2ccc(-c3ccc(NC(=O)c4cccc(C(F)(F)F)c4F)cc3)cc2C1=O [Example 194, (S)-2-(6-(4-(2-Fluoro-3-(trifluoromethyl)benzamido)phenyl)-1-oxoisoindolin-2-yl)-3-methylbutanoic acid] |
| > 50 | CC(C)[C@@H](C(=O)O)N1Cc2ccc(-c3ccc(NC(=O)c4ccc(C(F)(F)F)c(F)c4)cc3)cc2C1=O [Example 196, (S)-2-(6-(4-(3-Fluoro-4-(trifluoromethyl)benzamido)phenyl)-1-oxoisoindolin-2-yl)-3-methylbutanoic acid] |
| 10 to 50 | CC(C)[C@@H](C(=O)O)N1Cc2ccc(-c3ccc(NC(=O)c4ccc(F)cc4C(F)(F)F)cc3)cc2C1=O [Example 198, (S)-2-(6-(4-(4-Fluoro-2-(trifluoromethyl)benzamido)phenyl)-1-oxoisoindolin-2-yl)-3-methylbutanoic acid] |
| 10 to 50 | CC(C)[C@@H](C(=O)O)N1Cc2ccc(-c3ccc(NC(=O)c4ccccc4C(F)(F)F)cc3)cc2C1=O [Example 200, (S)-3-Methyl-2-(1-oxo-6-(4-(2-(trifluoromethyl)benzamido)phenyl)isoindolin-2-yl)butanoic acid] |
| > 50 | CCOc1ccccc1C(=O)Nc1ccc(-c2ccc3c(c2)C(=O)N([C@H](C(=O)O)C(C)C)C3)cc1 [Example 202, (S)-2-(6-(4-(2-Ethoxybenzamido)phenyl)-1-oxoisoindolin-2-yl)-3-methylbutanoic acid] |
| > 50 | CC(C)[C@@H](C(=O)O)N1Cc2ccc(-c3ccc(NC(=O)c4cccnc4)cc3)cc2C1=O [Example 207, (S)-3-Methyl-2-(6-(4-(nicotinamido)phenyl)-1-oxoisoindolin-2-yl)butanoic acid] |
| > 50 | CC(C)[C@@H](C(=O)O)N1Cc2ccc(-c3ccc(NC(=O)c4cccnc4Cl)cc3)cc2C1=O [Example 209, (S)-2-(6-(4-(2-Chloronicotinamido)phenyl)-1-oxoisoindolin-2-yl)-3-methyl butanoic acid] |
| 10 to 50 | CC(C)[C@@H](C(=O)O)N1Cc2ccc(-c3ccc(NC(=O)c4ccc(N5CCOCC5)nc4)cc3)cc2C1=O [Example 213, (S)-3-Methyl-2-(6-(4-(6-morpholinonicotinamido)phenyl)-1-oxoisoindolin-2-yl)butanoic acid] |
| > 50 | CC(C)[C@@H](C(=O)O)N1Cc2ccc(-c3ccc(NC(=O)c4ccc(N5CCCCC5)nc4)cc3)cc2C1=O [Example 215, (S)-3-Methyl-2-(1-oxo-6-(4-(6-(piperidin-1-yl)nicotinamido)phenyl)isoindolin-2-yl)butanoic acid] |
| > 50 | CC(C)[C@@H](C(=O)O)N1Cc2ccc(-c3ccc(NC(=O)c4ccc(N5CCCC5)nc4)cc3)cc2C1=O [Example 217, (S)-3-Methyl-2-(1-oxo-6-(4-(6-(pyrrolidin-1-yl)nicotinamido)phenyl)isoindolin-2-yl)butanoic acid] |
| > 50 | CC(C)[C@@H](C(=O)O)N1Cc2cc(-c3ccc(NC(=O)Nc4ccc(F)cc4)cc3)ccc2C1=O [Example 225, (S)-2-(5-(4-(3-(4-Fluorophenyl)ureido)phenyl)-1-oxoisoindolin-2-yl)-3-methylbutanoic acid] |
| > 50 | CC(C)[C@@H](C(=O)O)N1Cc2cc(-c3ccc(NC(=O)Nc4ccccc4F)cc3)ccc2C1=O [Example 227, (S)-2-(5-(4-(3-(2-Fluorophenyl)ureido)phenyl)-1-oxoisoindolin-2-yl)-3-methyl butanoic acid] |
| > 50 | CC(C)[C@@H](C(=O)O)N1Cc2cc(-c3ccc(NC(=O)Nc4cccc(F)c4)cc3)ccc2C1=O [Example 229, (S)-2-(5-(4-(3-(3-Fluorophenyl)ureido)phenyl)-1-oxoisoindolin-2-yl)-3-methyl butanoic acid] |
| 10 to 50 | CC(C)[C@@H](C(=O)O)N1Cc2cc(-c3ccc(NC(=O)Nc4ccccc4)cc3)ccc2C1=O [Example 231, (S)-3-Methyl-2-(1-oxo-5-(4-(3-phenylureido)phenyl)isoindolin-2-yl)butanoic acid] |

| inhibition at 1 µM [%] | Compound |
| --- | --- |
| 10 to 50 | CC(C)[C@@H](C(=O)O)N1Cc2cc(-c3ccc(NC(=O)NCc4ccccc4)cc3)ccc2C1=O [Example 233, (S)-2-(5-(4-(3-Benzylureido)phenyl)-1-oxoisoindolin-2-yl)-3-methylbutanoic acid] |
| 10 to 50 | CC(C)[C@@H](C(=O)O)N1Cc2cc(-c3ccc(NC(=O)NC4CCCCC4)cc3)ccc2C1=O [Example 235, (S)-2-(5-(4-(3-Cyclohexylureido)phenyl)-1-oxoisoindolin-2-yl)-3-methyl butanoic acid] |
| > 50 | CC(C)[C@@H](C(=O)O)N1Cc2cc(-c3ccc(NC(=O)Nc4ccc(F)cc4F)cc3)ccc2C1=O [Example 237, (S)-2-(5-(4-(3-(2,4-Difluorophenyl)ureido)phenyl)-1-oxoisoindolin-2-yl)-3-methylbutanoic acid] |
| > 50 | CC(C)[C@@H](C(=O)O)N1Cc2cc(-c3ccc(NC(=O)Nc4ccc(F)c(F)c4)cc3)ccc2C1=O [Example 239, (S)-2-(5-(4-(3-(3,4-Difluorophenyl)ureido)phenyl)-1-oxoisoindolin-2-yl)-3-methylbutanoic acid] |
| > 50 | Cc1ccc(NC(=O)Nc2ccc(-c3ccc4c(c3)CN([C@H](C(=O)O)C(C)C)C4=O)cc2)cc1 [Example 241, (S)-3-Methyl-2-(1-oxo-5-(4-(3-p-tolylureido)phenyl)isoindolin-2-yl)butanoic acid] |
| > 50 | Cc1cccc(NC(=O)Nc2ccc(-c3ccc4c(c3)CN([C@H](C(=O)O)C(C)C)C4=O)cc2)c1 [Example 243, (S)-3-Methyl-2-(1-oxo-5-(4-(3-m-tolylureido)phenyl)isoindolin-2-yl)butanoic acid] |
| > 50 | CC(C)[C@@H](C(=O)O)N1Cc2cc(-c3ccc(NC(=O)Nc4ccc(C(F)(F)F)cc4)cc3)ccc2C1=O [Example 245, (S)-3-Methyl-2-(1-oxo-5-(4-(3-(4-(trifluoromethyl)phenyl)ureido)phenyl)isoindolin-2-yl)butanoic acid] |
| > 50 | CC(C)[C@@H](C(=O)O)N1Cc2cc(-c3ccc(NC(=O)Nc4cccc(C(F)(F)F)c4)cc3)ccc2C1=O [Example 247, (S)-3-Methyl-2-(1-oxo-5-(4-(3-(3-(trifluoromethyl)phenyl)ureido)phenyl)isoindolin-2-yl)butanoic acid] |
| > 50 | COc1ccc(NC(=O)Nc2ccc(-c3ccc4c(c3)CN([C@H](C(=O)O)C(C)C)C4=O)cc2)cc1 [Example 249, (S)-2-(5-(4-(3-(4-Methoxyphenyl)ureido)phenyl)-1-oxoisoindolin-2-yl)-3-methylbutanoic acid] |
| > 50 | COc1cccc(NC(=O)Nc2ccc(-c3ccc4c(c3)CN([C@H](C(=O)O)C(C)C)C4=O)cc2)c1 [Example 251, (S)-2-(5-(4-(3-(3-Methoxyphenyl)ureido)phenyl)-1-oxoisoindolin-2-yl)-3-methylbutanoic acid] |
| > 50 | CC(C)[C@@H](C(=O)O)N1Cc2cc(-c3ccc(NC(=O)Nc4ccc(C#N)cc4)cc3)ccc2C1=O [Example 253, (S)-2-(5-(4-(3-(4-Cyanophenyl)ureido)phenyl)-1-oxoisoindolin-2-yl)-3-methylbutanoic acid] |
| > 50 | CC(C)[C@@H](C(=O)O)N1Cc2cc(-c3ccc(NC(=O)Nc4cccc(C#N)c4)cc3)ccc2C1=O [Example 255, (S)-2-(5-(4-(3-(3-Cyanophenyl)ureido)phenyl)-1-oxoisoindolin-2-yl)-3-methylbutanoic acid] |
| 10 to 50 | CC(C)[C@@H](C(=O)O)N1Cc2cc(-c3ccc(NC(=S)Nc4cccc(F)c4)cc3)ccc2C1=O [Example 259, (S)-2-(5-(4-(3-(3-Fluorophenyl)thioureido)phenyl)-1-oxoisoindolin-2-yl)-3-methyl butanoic acid] |
| 10 to 50 | COc1ccc(NC(=S)Nc2ccc(-c3ccc4c(c3)CN([C@H](C(=O)O)C(C)C)C4=O)cc2)cc1 [Example 261, (S)-2-(5-(4-(3-(4-Methoxyphenyl)thioureido)phenyl)-1-oxoisoindolin-2-yl)-3-methylbutanoic acid] |
| 10 to 50 | COc1cccc(NC(=S)Nc2ccc(-c3ccc4c(c3)CN([C@H](C(=O)O)C(C)C)C4=O)cc2)c1 [Example 263, (S)-2-(5-(4-(3-(3-Methoxyphenyl)thioureido)phenyl)-1-oxoisoindolin-2-yl)-3-methyl butanoic acid] |
